Patent US9302999B2, “Substituted triazoles as herbicides” (E. I. DU PONT DE NEMOURS AND COMPANY, priority 2012, dated 2016)

Assays:
Type in all cases: in vivo
[1] = system: large crabgrass (Digitaria sanguinalis); test: Test C pre-/postemergence: large crabgrass
Source text: (§1) Seeds of plant species selected from blackgrass (Alopecurus myosuroides), bromegrass, downy (downy bromegrass, Bromus tectorum), foxtail, green (green foxtail, Setaria viridis), ryegrass, Italian (Italian ryegrass, Lolium multiflorum), winter wheat (Triticum aestivum), wild oat (Avena fatua), galium (catchweed bedstraw, Galium aparine), bermudagrass (Cynodon dactylon), surinam grass (Brachiaria decumbens), cocklebur (common cocklebur, Xanthium strumarium), corn (Zea mays), large crabgrass (Digitaria sanguinalis), woolly cupgrass (Eriochloa villosa), foxtail, giant (giant foxtail, Setaria faberii), goosegrass (Eleusine indica), johnsongrass (Sorghum halepense), kochia (Kochia scoparia), lambsquarters (Chenopodium album), morningglory (Ipomoea coccinea), nightshade (eastern black nightshade, Solanum ptycanthum), nutsedge, yellow (yellow nutsedge, Cyperus esculentus), pigweed (Amaranthus retroflexus), ragweed (common ragweed, Ambrosia elation), soybean (Glycine max), common (oilseed) sunflower (Helianthus annuus), Russian thistle (Salsola kali) and velvetleaf (Abutilon theophrasti) were planted into a blend of loam soil and sand and treated preemergence with test chemicals formulated in a non-phytotoxic solvent mixture which included a surfactant.
(§2) At the same time, plants selected from these crop and weed species and also barley (winter barley, Hordeum vulgare), canarygrass (Phalaris minor), chickweed (common chickweed, Stellaria media) windgrass (Apera spica-venti) and deadnettle (henbit deadnettle, Lamium amplexicaule) were planted in pots containing Redi-Earth® planting medium (Scotts Company, 14111 Scottslawn Road, Marysville, Ohio 43041) comprising spaghnum peat moss, vermiculite, wetting agent and starter nutrients and treated with postemergence applications of test chemicals formulated in the same manner. Plants ranged in height from 2 to 18 cm (1- to 4-leaf stage) for postemergence treatments.
(§3) Treated plants and controls were maintained in a greenhouse for 13 to 15 days, after which time all species were compared to controls and visually evaluated. Plant response ratings, summarized in Table C, are based on a scale of 0 to 100 where 0 is no effect and 100 is complete control. A dash (-) response means no test result.

[2] = system: velvetleaf (Abutilon theophrasti); test: Test C pre-/postemergence: velvetleaf
Source text: as §1, §2, §3

[3] = system: ducksalad (Heteranthera limosa); test: Test B flooded paddy: ducksalad; conditions: Flood, applied to paddy water at 2-leaf stage, visually evaluated after 13 to 15 days
Outline: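 Plants were grown to the 2-leaf stage and pots flooded to 3 cm above soil. Compounds were applied directly into the paddy water, with depth kept for the test. After 13–15 days in greenhouse, response was rated visually against controls on a 0 (no effect) to 100 (complete control) scale.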

[4] = system: galium (catchweed bedstraw, Galium aparine); test: Test D pre-/postemergence: galium
Source text: (§4) Seeds of plant species selected from bluegrass (annual bluegrass, Poa annua), blackgrass (Alopecurus myosuroides), canarygrass (Phalaris minor), chickweed (common chickweed, Stellaria media), galium (catchweed bedstraw, Galium aparine), bromegrass, downy (downy bromegrass, Bromus tectorum), field poppy (Papaver rhoeas), field violet (Viola arvensis), foxtail, green (green foxtail, Setaria viridis), deadnettle (henbit deadnettle, Lamium amplexicaule), ryegrass, Italian (Italian ryegrass, Lolium multiflorum), kochia (Kochia scoparia), lambsquarters (Chenopodium album), oilseed rape (Brassica napus), pigweed (Amaranthus retroflexus), Russian thistle (Salsola iberica), chamomile (scentless chamomile, Matricaria inodora), speedwell (bird's-eye speedwell, Veronica persica), barley, spring (spring barley, Hordeum vulgare), wheat, spring (spring wheat, Triticum aestivum), buckwheat, wild (wild buckwheat, Polygonum convolvulus), mustard, wild (wild mustard, Sinapis arvensis), oat, wild (wild oat, Avena fatua), radish, wild (wild radish, Raphanus raphanistrum), windgrass (Apera spica-venti), barley, winter (winter barley, Hordeum vulgare), and wheat, winter (winter wheat, Triticum aestivum) were planted into a silt loam soil and treated preemergence with test chemicals formulated in a non-phytotoxic solvent mixture which included a surfactant. At the same time, these same crop and weed species were planted in pots containing the planting medium comprising spaghnum peat moss, vermiculite, wetting agent and starter nutrients and treated with postemergence applications of the test chemicals formulated in the same manner. Plants ranged in height from 2 to 18 cm (1- to 4-leaf stage).
as §3, with “controlled growth environment” for “greenhouse”, “14” for “13”, “21 days” for “15 days,”, “D,” for “C,”

kochia (Kochia scoparia) = test: Test D pre-/postemergence: kochia
Source text: as §4
as §3, with “controlled growth environment” for “greenhouse”, “14” for “13”, “21 days” for “15 days,”, “D,” for “C,”

[5] = system: field violet (Viola arvensis); test: Test D pre-/postemergence: field violet
Source text: as §4
as §3, with “controlled growth environment” for “greenhouse”, “14” for “13”, “21 days” for “15 days,”, “D,” for “C,”

[6] = system: ragweed (common ragweed, Ambrosia elation); test: Test C pre-/postemergence: ragweed
Source text: as §1, §2, §3

[7] = Preemergence, 16 g ai/ha, scale 0 (no effect) to 100 (complete control)
[8] = Preemergence, 31 g ai/ha, scale 0 (no effect) to 100 (complete control)
[9] = Preemergence, 62 g ai/ha, scale of 0 to 100, 0 is no effect, 100 is complete control
[10] = Preemergence, 125 g ai/ha, scale 0 to 100, 0 no effect, 100 complete control
[11] = Postemergence, 31 g ai/ha, scale 0 to 100 (0 no effect, 100 complete control)
[12] = Postemergence, 62 g ai/ha, scale 0 to 100 (0 no effect, 100 complete control)
[13] = Postemergence, 125 g ai/ha, scale 0 to 100, 0 no effect, 100 complete control
[14] = Postemergence, 250 g ai/ha, scale 0 to 100
[15] = Postemergence, 250 g ai/ha, scale 0 to 100 (0 no effect, 100 complete control)
[16] = Postemergence, 16 g ai/ha, scale 0 to 100
[17] = Preemergence, 16 g ai/ha, scale 0 to 100 (0 no effect, 100 complete control)
[18] = Preemergence, 31 g ai/ha, scale 0 to 100 (0 no effect, 100 complete control)
[19] = Preemergence, 125 g ai/ha, scale 0 to 100
[20] = Preemergence, 250 g ai/ha, scale 0 to 100
[21] = Preemergence, 62 g ai/ha, scale 0 to 100
[22] = Preemergence, 250 g ai/ha, scale 0 to 100, 0 no effect, 100 complete control
[23] = Preemergence, 31 g ai/ha, scale of 0 to 100, 0 is no effect, 100 is complete control
[24] = Postemergence, 16 g ai/ha, scale 0 to 100, 0 no effect, 100 complete control

CCOc1nn(-c2ccc(Br)cc2)nc1Cc1ccnc(C(F)(F)F)c1 [Compound 189]
Plant response rating, Crabgrass, Large [1, 7]: 98
Plant response rating, Crabgrass, Large [1, 8]: 98
Plant response rating, Crabgrass, Large [1, 9]: 100
Plant response rating, Crabgrass, Large [1, 10]: 100
Plant response rating, Velvetleaf [2, 7]: 10
Plant response rating, Velvetleaf [2, 8]: 15
Plant response rating, Velvetleaf [2, 9]: 40
Plant response rating, Velvetleaf [2, 10]: 60
Plant response rating, Ducksalad (0 to 100 scale, 0 is no effect, 100 is complete control) ([3]; 125 g ai/ha): 20

Cc1nn(-c2ccc(F)cc2)nc1Cc1ccnc(C(F)(F)F)c1 [Compound 16, 4-[[2-(4-fluorophenyl)-5-methyl-2H-1,2,3-triazol-4-yl]methyl]-2-(trifluoromethyl)pyridine]
Plant response rating, Crabgrass, Large [1, 11]: 5
Plant response rating, Crabgrass, Large [1, 12]: 5
Plant response rating, Crabgrass, Large [1, 13]: 20
Plant response rating, Crabgrass, Large [1, 14]: 60
Plant response rating, Velvetleaf [2, 11]: 10
Plant response rating, Velvetleaf [2, 12]: 65
Plant response rating, Velvetleaf [2, 13]: 65
Plant response rating, Velvetleaf [2, 14]: 85
Plant response rating: Galium [4, 11]: 40
Plant response rating: Galium [4, 12]: 50
Plant response rating: Galium [4, 13]: 60
Plant response rating: Galium [4, 15]: 70
Plant response rating, Galium [4, 16]: 20
Plant response rating, Galium [4, 17]: 0
Plant response rating, Galium [4, 18]: 0
Plant response rating, Galium [4, 19]: 20
Plant response rating, Galium [4, 20]: 20
Plant response rating: Kochia (kochia (Kochia scoparia); [11]): 90
Plant response rating: Kochia (kochia (Kochia scoparia); [12]): 95
Plant response rating: Kochia (kochia (Kochia scoparia); [13]): 75
Plant response rating: Kochia (kochia (Kochia scoparia); [15]): 95
Plant response rating, Kochia (kochia (Kochia scoparia); [16]): 85
Plant response rating, Kochia (kochia (Kochia scoparia); [17]): 30
Plant response rating, Kochia (kochia (Kochia scoparia); [18]): 30
Plant response rating, Kochia (kochia (Kochia scoparia); [21]): 90
Plant response rating, Kochia (kochia (Kochia scoparia); [19]): 90
Plant response rating, Kochia (kochia (Kochia scoparia); [20]): 100
Plant response rating: Field Violet [5, 11]: 20
Plant response rating: Field Violet [5, 12]: 30
Plant response rating: Field Violet [5, 13]: 70
Plant response rating: Field Violet [5, 15]: 80
Plant response rating, Field Violet [5, 16]: 0
Plant response rating, Field Violet [5, 17]: 0
Plant response rating, Field Violet [5, 18]: 30
Plant response rating, Field Violet [5, 21]: 80
Plant response rating, Field Violet [5, 19]: 90
Plant response rating, Field Violet [5, 20]: 100
Plant response rating, Ragweed [6, 11]: 5
Plant response rating, Ragweed [6, 12]: 25
Plant response rating, Ragweed [6, 13]: 75
Plant response rating, Ragweed [6, 14]: 75

CCc1nn(-c2ccc(F)cc2)nc1Oc1ccnc(C(F)(F)F)c1 [Compound 166]
Plant response rating, Crabgrass, Large [1, 11]: 15
Plant response rating, Crabgrass, Large [1, 12]: 15
Plant response rating, Crabgrass, Large [1, 13]: 20
Plant response rating, Crabgrass, Large [1, 14]: 40
Plant response rating, Crabgrass, Large [1, 8]: 85
Plant response rating, Crabgrass, Large [1, 9]: 98
Plant response rating, Crabgrass, Large [1, 10]: 100
Plant response rating, Crabgrass, Large [1, 22]: 100
Plant response rating, Velvetleaf [2, 11]: 10
Plant response rating, Velvetleaf [2, 12]: 20
Plant response rating, Velvetleaf [2, 13]: 20
Plant response rating, Velvetleaf [2, 14]: 30
Plant response rating, Velvetleaf [2, 8]: 0
Plant response rating, Velvetleaf [2, 9]: 0
Plant response rating, Velvetleaf [2, 10]: 15
Plant response rating, Velvetleaf [2, 22]: 60
Plant response rating, Ragweed [6, 11]: 15
Plant response rating, Ragweed [6, 12]: 15
Plant response rating, Ragweed [6, 13]: 25
Plant response rating, Ragweed [6, 14]: 75
Plant response rating, Ragweed [6, 8]: 20
Plant response rating, Ragweed [6, 9]: 20
Plant response rating, Ragweed [6, 10]: 25
Plant response rating, Ragweed [6, 22]: 55
Plant response rating, Ducksalad (0 to 100 scale, 0 is no effect, 100 is complete control) ([3]; 125 g ai/ha): 70

Cc1nn(-c2ccc(C(F)(F)F)c(F)c2)nc1Cc1ccnc(C(F)(F)F)c1 [Compound 162]
Plant response rating, Crabgrass, Large [1, 11]: 20
Plant response rating, Crabgrass, Large [1, 12]: 35
Plant response rating, Crabgrass, Large [1, 13]: 35
Plant response rating, Crabgrass, Large [1, 14]: 80
Plant response rating, Crabgrass, Large [1, 23]: 100
Plant response rating, Crabgrass, Large [1, 9]: 100
Plant response rating, Crabgrass, Large [1, 10]: 100
Plant response rating, Crabgrass, Large [1, 22]: 100
Plant response rating, Velvetleaf [2, 11]: 35
Plant response rating, Velvetleaf [2, 12]: 55
Plant response rating, Velvetleaf [2, 13]: 60
Plant response rating, Velvetleaf [2, 14]: 85
Plant response rating, Velvetleaf [2, 23]: 55
Plant response rating, Velvetleaf [2, 9]: 80
Plant response rating, Velvetleaf [2, 10]: 100
Plant response rating, Velvetleaf [2, 22]: 100
Plant response rating, Ragweed [6, 11]: 85
Plant response rating, Ragweed [6, 13]: 85
Plant response rating, Ragweed [6, 14]: 95
Plant response rating, Ragweed [6, 23]: 50
Plant response rating, Ragweed [6, 9]: 75
Plant response rating, Ragweed [6, 10]: 80
Plant response rating, Ragweed [6, 22]: 95
Plant response rating, Ducksalad (0 to 100 scale, 0 is no effect, 100 is complete control) ([3]; 125 g ai/ha): 0

CCCc1nn(-c2ccc(F)cc2)nc1Cc1ccnc(C(F)(F)F)c1 [Compound 153]
Plant response rating, Crabgrass, Large [1, 11]: 50
Plant response rating, Crabgrass, Large [1, 12]: 55
Plant response rating, Crabgrass, Large [1, 13]: 80
Plant response rating, Crabgrass, Large [1, 14]: 90
Plant response rating, Crabgrass, Large [1, 23]: 100
Plant response rating, Crabgrass, Large [1, 9]: 100
Plant response rating, Crabgrass, Large [1, 10]: 100
Plant response rating, Crabgrass, Large [1, 22]: 100
Plant response rating, Velvetleaf [2, 11]: 50
Plant response rating, Velvetleaf [2, 12]: 60
Plant response rating, Velvetleaf [2, 13]: 65
Plant response rating, Velvetleaf [2, 14]: 95
Plant response rating, Velvetleaf [2, 9]: 85
Plant response rating, Velvetleaf [2, 10]: 95
Plant response rating, Velvetleaf [2, 22]: 100
Plant response rating, Ragweed [6, 11]: 55
Plant response rating, Ragweed [6, 12]: 55
Plant response rating, Ragweed [6, 13]: 80
Plant response rating, Ragweed [6, 14]: 85
Plant response rating, Ragweed [6, 23]: 5
Plant response rating, Ragweed [6, 9]: 10
Plant response rating, Ragweed [6, 10]: 80
Plant response rating, Ragweed [6, 22]: 80
Plant response rating, Ducksalad (0 to 100 scale, 0 is no effect, 100 is complete control) ([3]; 250 g ai/ha): 90

Cc1nn(-c2ccc(C(F)(F)F)cc2)nc1Cc1cccc(C(F)(F)F)c1 [Compound 124]
Plant response rating, Crabgrass, Large [1, 24]: 20
Plant response rating, Crabgrass, Large [1, 11]: 30
Plant response rating, Crabgrass, Large [1, 12]: 40
Plant response rating, Crabgrass, Large [1, 13]: 45
Plant response rating, Velvetleaf [2, 24]: 45
Plant response rating, Velvetleaf [2, 11]: 45
Plant response rating, Velvetleaf [2, 12]: 50
Plant response rating, Velvetleaf [2, 13]: 55
Plant response rating, Ragweed [6, 24]: 45
Plant response rating, Ragweed [6, 11]: 50
Plant response rating, Ragweed [6, 12]: 65
Plant response rating, Ragweed [6, 13]: 65
